SMILES strings stand for the structures. A value given as a limit tells only on which side of the number the result lay.

As usually defined, the CC50 is the concentration that lowers cell viability or growth by half. In general, IC50 refers to the midpoint of a concentration-inhibition curve. High values mean a need for much substance, low ones inhibition by little substance.

For data set [1], the system named is LNCaP. Kind of data set: Cytotoxicity against PSMA-positive human LNCAP cells assessed as reduction in cell viability measured after 72 hrs by MTT assay. It is filed as functional.
The nature of data set [2]: Selectivity ratio of CC50 for human PSMA-deficient PC3 cells to CC50 for PSMA-positive human 22Rv1 cells. The class given is functional.
Data set [3] deals with CWR22R. Kind of data set: Cytotoxicity against PSMA-positive human 22Rv1 cells assessed as reduction in cell viability measured after 72 hrs by MTT assay. Particulars: 22Rv1, 72 h. It is filed as functional. For orientation: Tetrazolium dyes change colour on reduction, which living cells bring about.
The nature of data set [4]: Cytotoxicity against human A549 cells assessed as reduction in cell viability measured after 72 hrs by MTT assay. The class given is cell-based.
Data set [5] concerns PC-3. Kind of data set: Cytotoxicity against PSMA-deficient human PC3 cells assessed as reduction in cell viability measured after 72 hrs by MTT assay. The class given is functional. Particulars: PC-3, 72 h.
Data set [6] can be described thus: Selectivity ratio of CC50 for human VA13 cells to CC50 for PSMA-positive human 22Rv1 cells.
Data set [7] is described as follows: Cytotoxicity against human VA13 cells assessed as reduction in cell viability measured after 72 hrs by MTT assay. To be noted: WI-38 VA13 cells. The class given is cell-based.
Data set [8] is described as follows: Cytotoxicity against human MCF7 cells assessed as reduction in cell viability measured after 72 hrs by MTT assay. It is filed as cell-based.
The nature of data set [9]: Selectivity ratio of CC50 for human VA13 cells to CC50 for PSMA-positive human LNCAP cells.
The nature of data set [10]: Selectivity ratio of CC50 for human PSMA-deficient PC3 cells to CC50 for PSMA-positive human LNCAP cells. The class given is functional.
Data set [11] in a line: Cytotoxicity against HEK293T cells assessed as reduction in cell viability measured after 72 hrs by MTT assay. To be noted: human. The class given is cell-based, HEK-293T.
Data set [12] addresses Glutamate carboxypeptidase 2 (Homo sapiens, UniProt Q04609). Nature of the data set: Inhibition of PSMA in human LNCAP cells using NAAG as substrate measured after 2 hrs by amplex red reagent based fluorescence assay. The class given is cell-based.
Data set [13] deals with CWR22R. Nature of the data set: Antitumor activity against human 22Rv1 cells xenografted in nu/nu mouse assessed as tumor growth inhibition at 10 mg/kg, iv administered 3 times per week relative to control. The class given is functional. Particulars: 22Rv1, iv, read-out: TGI. On the technique in general: In xenograft studies the graft and the host belong to different species.

Data set [14] concerns CWR22R. Nature of the data set: Antitumor activity against human 22Rv1 cells xenografted in nu/nu mouse assessed as tumor growth inhibition at 6 mg/kg, iv administered 3 times per week relative to control. It is filed as functional. To be noted: 22Rv1, iv, read-out: TGI.

Sequence of Glutamate carboxypeptidase 2 (Q04609 whole entry): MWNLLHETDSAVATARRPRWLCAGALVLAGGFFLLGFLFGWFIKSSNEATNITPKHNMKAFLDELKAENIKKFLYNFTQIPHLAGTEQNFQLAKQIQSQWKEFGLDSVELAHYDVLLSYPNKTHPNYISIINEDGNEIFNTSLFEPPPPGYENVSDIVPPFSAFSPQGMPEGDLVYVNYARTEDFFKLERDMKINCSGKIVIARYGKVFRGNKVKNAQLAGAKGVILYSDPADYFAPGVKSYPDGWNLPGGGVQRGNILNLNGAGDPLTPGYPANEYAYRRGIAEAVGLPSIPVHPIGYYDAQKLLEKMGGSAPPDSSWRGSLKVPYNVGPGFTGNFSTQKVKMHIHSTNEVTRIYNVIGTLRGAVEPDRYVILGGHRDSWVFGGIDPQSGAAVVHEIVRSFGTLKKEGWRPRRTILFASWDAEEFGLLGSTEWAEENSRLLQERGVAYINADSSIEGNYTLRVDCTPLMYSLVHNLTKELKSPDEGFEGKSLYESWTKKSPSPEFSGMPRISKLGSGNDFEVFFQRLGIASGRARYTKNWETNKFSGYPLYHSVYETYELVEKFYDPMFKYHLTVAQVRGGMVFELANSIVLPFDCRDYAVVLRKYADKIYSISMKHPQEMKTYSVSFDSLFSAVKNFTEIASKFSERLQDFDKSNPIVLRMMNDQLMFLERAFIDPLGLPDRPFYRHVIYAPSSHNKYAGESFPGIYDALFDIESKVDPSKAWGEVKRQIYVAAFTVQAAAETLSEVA

Consider `CC(=O)O[C@H]1C(=O)[C@]2(C)[C@@H](OC(=O)CCCc3cn(CCCCCCCCCCC(=O)NCCCC[C@H](NC(=O)N[C@@H](CCC(=O)O)C(=O)O)C(=O)O)nn3)C[C@H]3OC[C@@]3(OC(C)=O)[C@H]2[C@H](OC(=O)c2ccccc2)[C@]2(O)C[C@H](OC(=O)[C@H](O)[C@@H](NC(=O)c3ccccc3)c3ccccc3)C(C)=C1C2(C)C`, for which the CC50 was found to be 1010 nM in data set [1], 2640 nM in data set [3] and 2920 nM in [5]. The Selectivity ratio came to 1.61 in data set [2], 0.59 in [6], 0.53 in [9] and 1.43 in data set [10]. For the same molecule, the CC50 at 72 h was determined as 632 nM in [4], 1160 nM in data set [7], 1210 nM in data set [8] and 730 nM in data set [11].

For the molecule `[N-]=[N+]=NCCCCCC(=O)N(CCCC[C@H](NC(=O)N[C@@H](CCC(=O)O)C(=O)O)C(=O)O)Cc1ccc(O)cc1`, in data set [7], the CC50 at 72 h amounted to 50200 nM. Further, in data set [12], the IC50 stood at 140 nM.

In the case of `CC(=O)O[C@H]1C(=O)[C@@]2(C)[C@H]([C@H](OC(=O)c3ccccc3)[C@]3(O)C[C@H](OC(=O)[C@H](OC(=O)CCCc4cn(CCCCCCCCCCNC(=O)NCCCC[C@H](NC(=O)N[C@@H](CCC(=O)O)C(=O)O)C(=O)O)nn4)[C@@H](NC(=O)c4ccccc4)c4ccccc4)C(C)=C1C3(C)C)[C@]1(OC(C)=O)CO[C@@H]1C[C@@H]2O`, the cytotoxic concentration (CC50) in data set [1] was found to be 60 nM; in [3], 132 nM; in data set [5], 75 nM. Also, the Selectivity ratio in [2] is recorded as 0.83; in data set [6], 0.93; in data set [9] it was 0.71; in [10], 0.63. Further, the CC50 at 72 h came out at 5 nM in [4], 101 nM in [7], 162 nM in data set [8] and 42 nM in data set [11].

Turning to `[N-]=[N+]=NCCCCCC(=O)N(CCCC[C@H](NC(=O)N[C@@H](CCC(=O)O)C(=O)O)C(=O)O)Cc1ccc(Br)cc1`, half-maximal inhibition in data set [12] (IC50) required 170 nM.

For `[N-]=[N+]=NCCCCCC(=O)N(CCCC[C@H](NC(=O)N[C@@H](CCC(=O)O)C(=O)O)C(=O)O)Cc1ccc(Cl)cc1`, the CC50 at 72 h in [7] is more than 100000 nM. Further, in data set [12], the midpoint of inhibition, the IC50, lay at 110 nM.

Consider `CC(=O)O[C@H]1C(=O)[C@@]2(C)[C@H]([C@H](OC(=O)c3ccccc3)[C@]3(O)C[C@H](OC(=O)[C@H](OC(=O)CCCc4cn(CCCCCCCCCCC(=O)NCCCC[C@H](NC(=O)N[C@@H](CCC(=O)O)C(=O)O)C(=O)O)nn4)[C@@H](NC(=O)c4ccccc4)c4ccccc4)C(C)=C1C3(C)C)[C@]1(OC(C)=O)CO[C@@H]1C[C@@H]2O`, for which the results for the CC50 in [1], in [3] and in data set [5] were 835 nM, 1000 nM and 1230 nM, respectively. The Selectivity ratio in data set [2] stood at 1.2; in data set [6], 0.85; in data set [9] it was 0.7; in data set [10], 0.99. In addition, the CC50 at 72 h came out at 20 nM in data set [4], 66 nM in data set [7], 189 nM in data set [8] and 294 nM in data set [11].

For the molecule `NCCCC[C@H](NC(=O)N[C@@H](CCC(=O)O)C(=O)O)C(=O)O`, the CC50 at 72 h in data set [7] was more than 100000 nM. The midpoint of inhibition in [12], the IC50, lay at 1470 nM.

Turning to `CC(=O)O[C@H]1C(=O)[C@@]2(C)[C@H]([C@H](OC(=O)c3ccccc3)[C@]3(O)C[C@H](OC(=O)[C@H](OC(=O)CCCc4cn(CCCCCC(=O)NCCCC[C@H](NC(=O)N[C@@H](CCC(=O)O)C(=O)O)C(=O)O)nn4)[C@@H](NC(=O)c4ccccc4)c4ccccc4)C(C)=C1C3(C)C)[C@]1(OC(C)=O)CO[C@@H]1C[C@@H]2O`, the cytotoxic concentration (CC50) in data set [1] is 58 nM; in data set [3], 120 nM; in data set [5], 95 nM. For the same molecule, the Selectivity ratio in data set [2] is reported as 1.13; in data set [6], 0.62; in data set [9] it was 0.47; in data set [10], 0.85. Moreover, the inhibition in vivo at 10 mg/kg in data set [13] is 30%. In addition, the CC50 at 72 h in [4], in data set [7], in data set [8] and in data set [11] was less than 20 nM throughout.

With `CC(=O)O[C@H]1C(=O)[C@@]2(C)[C@H]([C@H](OC(=O)c3ccccc3)[C@]3(O)C[C@H](OC(=O)[C@H](O)[C@@H](NC(=O)c4ccccc4)c4ccccc4)C(C)=C1C3(C)C)[C@]1(OC(C)=O)CO[C@@H]1C[C@@H]2O` [PACLITAXEL], the figures for the cytotoxic concentration (CC50) in data set [1], in data set [3] and in data set [5] were 1.4 nM, 3.9 nM and 2.7 nM, respectively. Besides, the Selectivity ratio in data set [2], in data set [6], in data set [9] and in data set [10] was 1 each time. Further, the inhibition in vivo at 6 mg/kg in data set [14] came to 30%. The CC50 at 72 h in data set [4], in data set [7], in data set [8] and in data set [11] was less than 20 nM each time.

Source of the values: ChEMBL document CHEMBL4387766, “Synthesis and biological evaluation of PSMA-targeting paclitaxel conjugates” (Bioorg Med Chem Lett, 2019).
